Source: patent US11780826B2 (Amgen Inc., priority 2017, dated 2023)

System: Bovine cardiac myofibrils
Test: In vitro model of dose-dependent myofibril ATPase modulation (AC1.4, pyruvate kinase/lactate dehydrogenase-coupled ATPase assay at pCa25)
Type: biochemical
Conditions: concentration at which ATPase activity was 1.4-fold higher than the bottom of the dose curve, mean of a minimum of two independent tests
Summary of the method: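 Compound dilutions were premixed with myofibrils, coupling enzymes, EGTA and CaCl2, then the reaction was started with an equal volume carrying ATP (final 1 mM), NADH and PEP. ATP turnover was followed at 340 nm, and dose responses were fit to a four-parameter equation.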

| SMILES | AC1.4 [µM] |
| --- | --- |
| C[C@@H](NC(=O)[C@H]1COCCN1C(=O)[C@H]1CCCN(S(=O)(=O)N2CC(C#N)C2)C1)c1ccc(C(F)(F)F)cc1 [Example 175, (3R)-4-(((3S)-1-((3-cyano-1-azetidinyl)sulfonyl)-3-piperidinyl)carbonyl)-N-((1R)-1-(4-(trifluoromethyl)phenyl)ethyl)-3-morpholinecarboxamide] | 0.3064 |
| COc1cc(Cl)ccc1CNC(=O)[C@H]1CCCN1C(=O)[C@H]1CCCN(S(=O)(=O)N2CC(C#N)C2)C1 [Example 176, N-(4-chloro-2-methoxybenzyl)-1-(((3S)-1-((3-cyano-1-azetidinyl)sulfonyl)-3-piperidinyl)carbonyl)-D-prolinamide] | 0.3085 |
| N#CC1CN(S(=O)(=O)N2CCC[C@H](C(=O)N3C[C@@H]4C[C@@H]4[C@@H]3C(=O)NCc3ccc(C(F)(F)F)cc3)C2)C1 [Example 177, (1S,2R,5R)-3-(((3S)-1-((3-cyano-1-azetidinyl)sulfonyl)-3-piperidinyl)carbonyl)-N-(4-(trifluoromethyl)benzyl)-3-azabicyclo[3.1.0]hexane-2-carboxamide] | 0.3113 |
| CCS(=O)(=O)c1cccc(C(=O)N2[C@@H](C(=O)N[C@@H](c3cc(F)c(C(F)F)cc3F)C3CC3)C[C@H]3C[C@H]32)c1 [Example 178, (1R,3R,5R)-N-((R)-cyclopropyl(4-(difluoromethyl)-2,5-difluorophenyl)methyl)-2-(3-(ethylsulfonyl)benzoyl)-2-azabicyclo[3.1.0]hexane-3-carboxamide] | 0.314 |
| CS(=O)(=O)c1cccc(C(=O)N2CCC[C@@H]2C(=O)N[C@@H](c2ccc(C(F)(F)F)c(F)c2)C2COC2)c1 [Example 179, N-((R)-(3-fluoro-4-(trifluoromethyl)phenyl)(3-oxetanyl)methyl)-1-(3-(methylsulfonyl)benzoyl)-D-prolinamide] | 0.3231 |
| O=C(NCc1ccc(C(F)(F)F)cc1)[C@H]1CCCN1C(=O)[C@H]1CCCN(S(=O)(=O)N2CCC2c2cccc(Br)c2)C1 (stereo partly drawn) [Example 180, 1-(((3S)-1-((-2-(3-bromophenyl)-1-azetidinyl)sulfonyl)-3-piperidinyl)carbonyl)-N-(4-(trifluoromethyl)benzyl)-D-prolinamide] | 0.3256 |
| Cc1ccc(CNC(=O)[C@H]2CCCN2C(=O)[C@H]2CCCN(S(=O)(=O)N3CC(C#N)C3)C2)c(F)c1 [Example 181, 1-(((3S)-1-((3-cyano-1-azetidinyl)sulfonyl)-3-piperidinyl)carbonyl)-N-(2-fluoro-4-methylbenzyl)-D-prolinamide] | 0.3278 |
| N#CC1CN(S(=O)(=O)N2CCCC(F)(C(=O)N3CCC[C@@H]3C(=O)NCc3ccc(C(F)(F)F)cc3)C2)C1 (stereo partly drawn) [Example 183, 1-((-1-((3-cyano-1-azetidinyl)sulfonyl)-3-fluoro-3-piperidinyl)carbonyl)-N-(4-(trifluoromethyl)benzyl)-D-prolinamide] | 0.3361 |
| NC(=O)C1(c2cccc(C(=O)N3[C@@H](C(=O)N[C@@H](c4cc(F)c(Cl)cc4F)C4COC4)C[C@H]4C[C@H]43)c2)CC1 [Example 184, (1R,3R,5R)-2-(3-(1-carbamoylcyclopropyl)benzoyl)-N-((R)-(4-chloro-2,5-difluorophenyl)(3-oxetanyl)methyl)-2-azabicyclo[3.1.0]hexane-3-carboxamide] | 0.3365 |
| CC(C)[C@@H](NC(=O)[C@H]1CCCN1C(=O)c1cccc(S(=O)(=O)N(C)C)c1)c1ccc(C(F)(F)F)cc1F [Example 185, 1-(3-(dimethylsulfamoyl)benzoyl)-N-((1R)-1-(2-fluoro-4-(trifluoromethyl)phenyl)-2-methylpropyl)-D-prolinamide] | 0.3371 |
| CC(C)(C)Nc1ccc(S(C)(=O)=O)cc1C(=O)N1CCC[C@@H]1C(=O)N[C@@H](c1ccc(C(F)(F)F)cc1F)C1CC1 [Example 186, N-((R)-cyclopropyl(2-fluoro-4-(trifluoromethyl)phenyl)methyl)-1-(2-((2-methyl-2-propanyl)amino)-5-(methylsulfonyl)benzoyl)-D-prolinamide] | 0.3372 |
| N#CC1CN(S(=O)(=O)N2CCO[C@H](C(=O)N3CCC[C@@H]3C(=O)NCc3ccc(Cl)cc3F)C2)C1 [Example 187, N-(4-chloro-2-fluorobenzyl)-1-(((2S)-4-((3-cyano-1-azetidinyl)sulfonyl)-2-morpholinyl)carbonyl)-D-prolinamide] | 0.3409 |
| N#CC1CN(S(=O)(=O)c2cccc(C(=O)N3CCC[C@@H]3C(=O)N[C@@H](CO)c3ccc(C(F)(F)F)cc3)c2)C1 [Example 188, 1-(3-((3-cyano-1-azetidinyl)sulfonyl)benzoyl)-N-((1R)-2-hydroxy-1-(4-(trifluoromethyl)phenyl)ethyl)-D-prolinamide] | 0.3496 |
| N#CC1CN(S(=O)(=O)N2CC3CC2[C@@H](C(=O)N2CCC[C@@H]2C(=O)NCc2ccc(C(F)(F)F)cc2F)C3)C1 (stereo partly drawn) [Example 189, 1-((2-((3-cyano-1-azetidinyl)sulfonyl)-2-azabicyclo[2.2.1]hept-6-yl)carbonyl)-N-(2-fluoro-4-(trifluoromethyl)benzyl)-D-prolinamide] | 0.3524 |
| N#CC1CN(S(=O)(=O)c2cccc(C(=O)N3CCC[C@@H]3C(=O)NCc3cccc(Cl)c3)c2)C1 [Example 190, N-(3-chlorobenzyl)-1-((3-((3-cyano-1-azetidinyl)sulfonyl)phenyl)carbonyl)-D-prolinamide] | 0.3569 |

More lines, now with the values ahead:

| AC1.4 [µM] | SMILES |
| --- | --- |
| 0.3593 | Cc1ccc(CNC(=O)[C@H]2CCCN2C(=O)[C@H]2CCCN(S(=O)(=O)N3CC(C#N)C3)C2)c(Cl)c1 [Example 191, N-(2-chloro-4-methylbenzyl)-1-(((3S)-1-((3-cyano-1-azetidinyl)sulfonyl)-3-piperidinyl)carbonyl)-D-prolinamide] |
| 0.3628 | N#C[C@H]1CCN(S(=O)(=O)N2CCC[C@H](C(=O)N3CCC[C@@H]3C(=O)NCc3ccc(C(F)(F)F)cc3)C2)C1 [Example 192, 1-(((3S)-1-(((3S)-3-cyano-1-pyrrolidinyl)sulfonyl)-3-piperidinyl)carbonyl)-N-(4-(trifluoromethyl)benzyl)-D-prolinamide] |
| 0.3676 | CS(=O)(=O)c1cccc(C(=O)N2[C@@H](C(=O)N[C@@H](c3ccc(C(F)(F)F)c(F)c3)C3COC3)C[C@H]3C[C@H]32)c1 [Example 193, (1R,3R,5R)-N-((R)-(3-fluoro-4-(trifluoromethyl)phenyl)(3-oxetanyl)methyl)-2-(3-(methylsulfonyl)benzoyl)-2-azabicyclo[3.1.0]hexane-3-carboxamide] |
| 0.385 | NS(=O)(=O)c1cccc(C(=O)N2CCCC[C@@H]2C(=O)N[C@@H](c2cc(F)c(Cl)cc2F)C2CC2)c1 [Example 194, (2R)-N-((R)-(4-chloro-2,5-difluorophenyl)(cyclopropyl)methyl)-1-(3-sulfamoylbenzoyl)-2-piperidinecarboxamide] |
| 0.3859 | CC[C@H](NC(=O)[C@H]1CCCN1C(=O)[C@H]1CCCN(S(=O)(=O)N2CC(C#N)C2)C1)c1ccc(C(F)(F)F)cc1 [Example 195, 1-(((3S)-1-((3-cyano-1-azetidinyl)sulfonyl)-3-piperidinyl)carbonyl)-N-((1S)-1-(4-(trifluoromethyl)phenyl)propyl)-D-prolinamide] |
| 0.3906 | C#CC1(O)CN(S(=O)(=O)N2CCC[C@H](C(=O)N3CCC[C@@H]3C(=O)NCc3ccc(C(F)(F)F)cc3F)C2)C1 [Example 196, 1 (((3S)-1-((3-ethynyl-3-hydroxy-1-azetidinyl)sulfonyl)-3-piperidinyl)carbonyl)-N-(2-fluoro-4-(trifluoromethyl)benzyl)-D-prolinamide] |
| 0.3963 | CS(=O)(=O)c1cccc(C(=O)N2[C@@H](C(=O)N[C@@H](c3cc(F)c(C(F)F)cc3F)C3CC3)C[C@H]3C[C@H]32)c1 [Example 197, (1R,3R,5R)-N-((R)-cyclopropyl(4-(difluoromethyl)-2,5-difluorophenyl)methyl)-2-(3-(methylsulfonyl)benzoyl)-2-azabicyclo[3.1.0]hexane-3-carboxamide] |
| 0.4034 | N#CC1CN(S(=O)(=O)N2CCC[C@H](C(=O)N3CCC[C@@H]3C(=O)N[C@@H](c3ccc(C(F)(F)F)cc3)C(F)(F)F)C2)C1 [Example 198, 1-(((3S)-1-((3-cyano-1-azetidinyl)sulfonyl)-3-piperidinyl)carbonyl)-N-((1S)-2,2,2-trifluoro-1-(4-(trifluoromethyl)phenyl)ethyl)-D-prolinamide] |
| 0.4078 | O=C(NCc1ccc(C(F)(F)F)cc1F)[C@H]1CCCN1C(=O)[C@H]1CCCN(S(=O)(=O)N2CC(O)(C3CC3)C2)C1 [Example 199, 1-(((3S)-1-((3-cyclopropyl-3-hydroxy-1-azetidinyl)sulfonyl)-3-piperidinyl)carbonyl)-N-(2-fluoro-4-(trifluoromethyl)benzyl)-D-prolinamide] |
| 0.411 | CS(=O)(=O)c1cccc(C(=O)N2C[C@@H](F)C[C@@H]2C(=O)N[C@@H](c2cc(F)c(Cl)cc2F)C2CC2)c1 [Example 201, (4S)-N-((R)-(4-chloro-2,5-difluorophenyl)(cyclopropyl)methyl)-4-fluoro-1-(3-(methylsulfonyl)benzoyl)-D-prolinamrde] |
| 0.4116 | CS(=O)(=O)c1ccnc(C(=O)N2[C@@H](C(=O)N[C@@H](c3cc(F)c(Cl)cc3F)C3CC3)C[C@H]3C[C@H]32)c1 [Example 202, (1R,3R,5R)-N-((R)-(4-chloro-2,5-difluorophenyl)(cyclopropyl)methyl)-2-((4-(methylsulfonyl)-2-pyridinyl)carbonyl)-2-azabicyclo[3.1.0]hexane-3-carboxamide] |
| 0.4299 | O=C(NCc1ccc(C(F)(F)F)cc1)[C@H]1CCCN1C(=O)[C@H]1CCCN(S(=O)(=O)N2CC(n3ccnn3)C2)C1 [Example 203, 1-(((3S)-1-((3-(1H-l,2,3-triazol-1-yl)-1-azetidinyl)sulfonyl)-3-piperidinyl)carbonyl)-N-(4-(trifluoromethyl)benzyl)-D-prolinamide] |
